Data as given in US20240368150A1 (Hoffmann-La Roche Inc., priority 2021, published 2024).
Like-named read-outs stand apart in the source and are kept apart here.

Assays:
primary human T-cells [1] = experiment: Proliferation assay after 5 days (CellTiter-Glo, CD3 stimulation; PBS counter screen); format: cell-based; details: Homo sapiens, T-cell, 120 h; for Emax: read-out: Emax proliferation (% activation); for EC50: read-out: Tcell Proliferation CD3 EC50
Procedure, shortened: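 Cpds added to medium-only plates; 5 d culture. Readout CellTiter-Glo 2.0 (equal vol), RT 45 min equilibration, 15 min rocking RT, luminescence. ATP signal taken as cell number.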

primary human T-cells [2] = system: primary human T-cells
[3] = CD3 stimulation, 5 days, normalized to reference compound A1 as stimulator control = 100%, DMSO neutral control
[4] = primary human T-cells, CD3 stimulation, CellTiter-Glo after 5 days, EC50 of fitted sigmoidal curve

SMILES | EC50 (primary human T-cells [2]) | Emax (primary human T-cells [1]) | EC50 (primary human T-cells [1]) | Emax (primary human T-cells [1]; [3]) | EC50 (primary human T-cells [1]; [4])
Cc1ccc(OC(=O)N2CCC(C)(c3nnc(-c4ccc5c(c4)N(Cc4ccc(Cl)cc4)C(=O)[C@@H](N)CS5(=O)=O)o3)CC2)cn1 [Example 383, (6-methyl-3-pyridyl) 4-[5-[(3R)-3-amino-5-[(4-chlorophenyl)methyl]-1,1,4-trioxo-2,3-dihydro-1λ^6,5-benzothiazepin-7-yl]-1,3,4-oxadiazol-2-yl]-4-methyl-piperidine-1-carboxylate] | 0.857 µM | 94% | 1.32 µM | – | –
CN1CC(c2nnc(-c3ccc4c(c3)N(Cc3ccc(Cl)cc3)C(=O)[C@@H](N)CS4(=O)=O)o2)CC(F)(F)C1 (stereo partly drawn) [Example 385, (3R)-3-amino-5-[(4-chlorophenyl)methyl]-7-[5-(5,5-difluoro-1-methyl-3-piperidyl)-1,3,4-oxadiazol-2-yl]-1,1-dioxo-2,3-dihydro-1λ^6,5-benzothiazepin-4-one] | 0.895 µM | – | – | 106% | 1.49 µM
N[C@H]1CS(=O)(=O)c2ccc(-c3nnc(C4CC5(CC(O)C5)C4)o3)cc2N(Cc2ccc(Cl)cc2)C1=O (stereo partly drawn) [Example 387, (3R)-3-amino-5-[(4-chlorophenyl)methyl]-7-[5-(2-hydroxyspiro[3.3]heptan-6-yl)-1,3,4-oxadiazol-2-yl]-1,1-dioxo-2,3-dihydro-1λ^6,5-benzothiazepin-4-one] | 2.28 µM | – | – | 157% | 1.12 µM
COC(=O)N1CCC(C#N)(c2nnc(-c3ccc4c(c3)N(Cc3ccc(Cl)cc3)C(=O)[C@@H](N)CS4(=O)=O)o2)CC1 [Example 389, methyl 4-[5-[(3R)-3-amino-5-[(4-chlorophenyl)methyl]-1,1,4-trioxo-2,3-dihydro-1λ^6,5-benzothiazepin-7-yl]-1,3,4-oxadiazol-2-yl]-4-cyano-piperidine-1-carboxylate] | > 2.73 µM | – | – | 80% | 1.99 µM
CC(F)(F)CNc1nnc(-c2ccc3c(c2)N(Cc2ccc(Cl)cc2)C(=O)[C@@H](N)CS3(=O)=O)o1 [Example 393, (3R)-3-amino-5-[(4-chlorophenyl)methyl]-7-[5-(2,2-difluoropropylamino)-1,3,4-oxadiazol-2-yl]-1,1-dioxo-2,3-dihydro-1λ^6,5-benzothiazepin-4-one] | 4.01 µM | – | – | 51% | 2.82 µM
CN(c1nnc(-c2ccc3c(c2)N(Cc2ccc(Cl)cc2)C(=O)[C@@H](N)CS3(=O)=O)o1)C1CC1 [Example 394, (3R)-3-amino-5-[(4-chlorophenyl)methyl]-7-[5-[cyclopropyl(methyl)amino]-1,3,4-oxadiazol-2-yl]-1,1-dioxo-2,3-dihydro-1λ^6,5-benzothiazepin-4-one] | 3.09 µM | – | – | 98% | 1.77 µM
CC1(C)CN(c2nnc(-c3ccc4c(c3)N(Cc3ccc(Cl)cc3)C(=O)[C@@H](N)CS4(=O)=O)o2)CCO1 [Example 395, (3R)-3-amino-5-[(4-chlorophenyl)methyl]-7-[5-(2,2-dimethylmorpholin-4-yl)-1,3,4-oxadiazol-2-yl]-1,1-dioxo-2,3-dihydro-1λ^6,5-benzothiazepin-4-one] | 1.12 µM | – | – | 88% | 0.517 µM
N[C@H]1CS(=O)(=O)c2ccc(-c3nnc(N4CC5(CCC5)C4)o3)cc2N(Cc2ccc(Cl)cc2)C1=O [Example 398, (3R)-3-amino-7-[5-(2-azaspiro[3.3]heptan-2-yl)-1,3,4-oxadiazol-2-yl]-5-[(4-chlorophenyl)methyl]-1,1-dioxo-2,3-dihydro-1λ^6,5-benzothiazepin-4-one] | 0.879 µM | – | – | 115% | 3.48 µM
CC(C)Nc1nnc(-c2ccc3c(c2)N(Cc2ccc(Cl)cc2)C(=O)[C@@H](N)CS3(=O)=O)o1 [Example 399, (3R)-3-amino-5-[(4-chlorophenyl)methyl]-7-[5-(isopropylamino)-1,3,4-oxadiazol-2-yl]-1,1-dioxo-2,3-dihydro-1λ^6,5-benzothiazepin-4-one] | 3.58 µM | – | – | 73% | 3.46 µM
N[C@H]1CS(=O)(=O)c2ccc(-c3nnc(N4CC5(C4)CC(F)(F)C5)o3)cc2N(Cc2ccc(Cl)cc2)C1=O [Example 402, (3R)-3-amino-5-[(4-chlorophenyl)methyl]-7-[5-(6,6-difluoro-2-azaspiro[3.3]heptan-2-yl)-1,3,4-oxadiazol-2-yl]-1,1-dioxo-2,3-dihydro-1λ^6,5-benzothiazepin-4-one] | 1.64 µM | – | – | 93% | 0.928 µM
COCC1(Nc2nnc(-c3ccc4c(c3)N(Cc3ccc(Cl)cc3)C(=O)[C@@H](N)CS4(=O)=O)o2)CC(F)(F)C1 [Example 403, (3R)-3-amino-5-[(4-chlorophenyl)methyl]-7-[5-[[3,3-difluoro-1-(methoxymethyl)cyclobutyl]amino]-1,3,4-oxadiazol-2-yl]-1,1-dioxo-2,3-dihydro-1λ^6,5-benzothiazepin-4-one] | 3.68 µM | – | – | 83% | 1.15 µM

The remaining molecules from weak to strong by EC50 (primary human T-cells [2]), led by results:

EC50 (primary human T-cells [2]) | SMILES | Emax (primary human T-cells [1]) | EC50 (primary human T-cells [1]) | Emax (primary human T-cells [1]; [3]) | EC50 (primary human T-cells [1]; [4])
8.11 µM | N[C@H]1CS(=O)(=O)c2ccc(-c3nnc(N4CC5(CCCO5)C4)o3)cc2N(Cc2ccc(Cl)cc2)C1=O [Example 404, (3R)-3-amino-5-[(4-chlorophenyl)methyl]-7-[5-(5-oxa-2-azaspiro[3.4]octan-2-yl)-1,3,4-oxadiazol-2-yl]-1,1-dioxo-2,3-dihydro-1λ^6,5-benzothiazepin-4-one] | – | – | 101% | 2.35 µM
4.05 µM | N[C@H]1CS(=O)(=O)c2ccc(-c3nnc(N4CC(CO)(CCl)C4)o3)cc2N(Cc2ccc(Cl)cc2)C1=O [Example 400, (3R)-3-amino-7-[5-[3-(chloromethyl)-3-(hydroxymethyl)azetidin-1-yl]-1,3,4-oxadiazol-2-yl]-5-[(4-chlorophenyl)methyl]-1,1-dioxo-2,3-dihydro-1λ^6,5-benzothiazepin-4-one] | – | – | 72% | 5.22 µM
1.32 µM | N[C@H]1CS(=O)(=O)c2ccc(-c3nnc(N4CC5(CCCOC5)C4)o3)cc2N(Cc2ccc(Cl)cc2)C1=O [Example 405, (3R)-3-amino-5-[(4-chlorophenyl)methyl]-7-[5-(6-oxa-2-azaspiro[3.5]nonan-2-yl)-1,3,4-oxadiazol-2-yl]-1,1-dioxo-2,3-dihydro-1λ^6,5-benzothiazepin-4-one] | – | – | 86% | 1.08 µM
0.937 µM | N[C@H]1CS(=O)(=O)c2ccc(-c3nnc(N4CCC(F)(F)CC4)o3)cc2N(Cc2ccc(Cl)cc2)C1=O [Example 396, (3R)-3-amino-5-[(4-chlorophenyl)methyl]-7-[5-(4,4-difluoro-1-piperidyl)-1,3,4-oxadiazol-2-yl]-1,1-dioxo-2,3-dihydro-1λ^6,5-benzothiazepin-4-one] | – | – | 87% | 0.526 µM
0.331 µM | COC(F)(c1nnc(-c2ccc3c(c2)N(Cc2ccc(Cl)cc2)C(=O)[C@@H](N)CS3(=O)=O)o1)C(F)(F)F (stereo partly drawn) [Example 388, (3R)-3-amino-5-[(4-chlorophenyl)methyl]-1,1-dioxo-7-[5-(1,2,2,2-tetrafluoro-1-methoxy-ethyl)-1,3,4-oxadiazol-2-yl]-2,3-dihydro-1λ^6,5-benzothiazepin-4-one] | – | – | 129% | 0.166 µM
